The record followed here is publication PMC5744064, “Regulation of Class A β-Lactamase CzoA by CzoR and IscR in Comamonas testosteroni S44” (Frontiers in Microbiology, 2017).

≈ marks a conversion by molar mass, not a printed value. A value given as a limit tells only on which side of the number the result lay.

The assay deals with T1, C. testosteroni S44.
T1 construct: S44
In words: organism not typed. The settings on record: wild-type S44, MH broth. Further details: species or system Comamonas testosteroni S44; Broth dilution MIC in Mueller-Hinton broth, bacterial growth inhibition (CLSI). How it is done: Minimal inhibitory concentration profiles of the recombinant E. coli DH5α ([Miller and Mekalanos, 1988]) expressing czoA (pCT-Zori::czoA) and the isogenic strains of C. testosteroni S44 (S44, ΔczoR, ΔczoR-C, ΔiscR, and ΔiscR-C) were determined by the broth dilution method ([Clinical and Laboratory Standards Institute, 2014]) using 11 β-lactams. For the recombinant E. coli DH5α, two β-lactamase inhibitors, clavulanic acid, and tazobactam were also tested. E. coli DH5α (pCT-Zori) was used as a control. Clavulanic acid and tazobactam were generally fixed at a concentration of 2 and 4 μg/ml, respectively ([Girlich et al., 2007]; [Naas et al., 2007]; [Lamoureaux et al., 2013]; [Clinical and Laboratory Standards Institute, 2014]). Moreover, growth tendency of the isogenic strains of S44 under stress of 11 β-lactams with concentration below MIC was evaluated through OD600 values. Isogenic strains of C. testosteroni S44 in exponential growth phase were inoculated with each of 11 β-lactams in MH medium at 37°C and OD600 values were determined using a spectrophotometer after growth for 24 h. Bacterial strains, plasmids, and [compound left out] primers used in this study are shown in Supplementary Table S1. All strains were grown at 37°C in Luria-Bertani (LB, Oxoid, United Kingdom) broth unless otherwise stated. Mueller-Hinton (MH, Beijing Land Bridge Technology, China) broth dilution was used to determine the minimal inhibitory concentration (MIC) of antibiotics. Antibiotic disk (Hangzhou Microbial Reagent, China) diffusion tests were used for the antibiotic susceptibility assay (cephalexin and cefazolin). […] Then, the seed [compound left out] was used directly in relevant experiments.
Consider `CC1(C)S[C@@H]2[C@H](NC(=O)Cc3ccccc3)C(=O)N2[C@H]1C(=O)O` [Benzylpenicillin], for which the MIC is greater than 2050 µg/mL. To `C[C@@H](O)[C@H]1C(=O)N2C(C(=O)O)=C(SCCNC=N)C[C@H]12` [Imipenem] belongs 8 µg/mL (≈ 26.7 µM). The molecule `CC(C)(O/N=C(\C(=O)N[C@@H]1C(=O)N2C(C(=O)[O-])=C(C[n+]3ccccc3)CS[C@H]12)c1csc(N)n1)C(=O)O` [Ceftazidime] came in with an MIC of 128 µg/mL (≈ 234 µM). To `CC1(C)S[C@@H]2[C@H](NC(=O)[C@H](N)c3ccccc3)C(=O)N2[C@H]1C(=O)O` [Ampicillin] belongs greater than 2050 µg/mL; to `Cc1nnc(SCC2=C(C(=O)O)N3C(=O)[C@@H](NC(=O)Cn4cnnn4)[C@H]3SC2)s1` [Cefazolin], greater than 2050 µg/mL; to `CC1=C(C(=O)O)N2C(=O)[C@@H](NC(=O)[C@H](N)c3ccccc3)[C@H]2SC1` [Cefalexin], greater than 1020 µg/mL. Regarding `CO/N=C(\C(=O)N[C@@H]1C(=O)N2C(C(=O)O)=C(CSc3nc(=O)c(=O)[nH]n3C)CS[C@H]12)c1csc(N)n1` [Ceftriaxone], the MIC was greater than 1020 µg/mL. For `C[C@@H](O)[C@H]1C(=O)N2C(C(=O)O)=C(S[C@@H]3CN[C@H](C(=O)N(C)C)C3)[C@H](C)[C@H]12` [Meropenem], the MIC came to 1 µg/mL (≈ 2.61 µM).

`CO/N=C(\C(=O)N[C@@H]1C(=O)N2C(C(=O)[O-])=C(C[N+]3(C)CCCC3)CS[C@H]12)c1csc(N)n1` [Cefepime]: the MIC was greater than 512 µg/mL. Take `CO[C@@]1(NC(=O)Cc2cccs2)C(=O)N2C(C(=O)O)=C(COC(N)=O)CS[C@@H]21` [Cefoxitin]: 128 µg/mL (≈ 299 µM) was the least that counted as inhibitory (MIC).

Molecule `CO/N=C(\C(=O)N[C@@H]1C(=O)N2C(C(=O)O)=C(COC(N)=O)CS[C@H]12)c1ccco1` [Cefuroxime] gave an MIC greater than 128 µg/mL.

The term MIC denotes the least concentration at which growth counts as inhibited.
